Key:
auditory neurons = assay: extracellular electrophysiological recording of auditory neuron firing rate
neurons = details: superfusion, in vitro
Text: The activity in tinnitus of the compounds is indicated in standard tests, e.g. in the salicylate-induced tinnitus model.

[1] = system: patients with diabetic neuropathy; assay: clinical study of chronic pain in patients with diabetic neuropathy; format: in vivo, human; details: 2400 mg/day, Maintenance and Follow-up Periods, statistically significant
Experimental: The activity of the compounds of formula I in the treatment of neuropathic pain can be confirmed in clinical trials, for example in the following study aimed at evaluating the efficacy of a compound in treating chronic pain in patients with diabetic neuropathy:
Patients are randomized to receive 2400 mg/day of the compound or placebo in a 1:1 ratio.
The study consists of a Pre-randomization Phase (1 week) and a Double-blind Phase (5 weeks). The double-blind Phase consists of three periods: a one week Titration Period, a three-week Maintenance Period and a one-week Follow-up Period.
During the 1-week Pre-randomization Phase, the eligibility of the patients is evaluated. Patents meeting all inclusion/exclusion criteria are randomized to either the compound or placebo in the Double-blind Phase. […]
The SF-MPQ total pain score at the end of the Maintenance Period is analyzed using an analysis of covariance model adjusting for the effect of treatment on post-treatment scores by using the baseline SF-MPQ total pain score as a covariate. Average weekly pain severity is analyzed using an analysis of covariance model with repeated measures using the treatment week and the mean pain severity rating during the Pre-randomization Phase as covariates. Usage of rescue medication during the Double-blind Phase is analyzed using the Cochran-Mantel-Haenszel test controlling for center. […]

Wistar rats = assay: model of neuropathic pain in the rat (partial sciatic nerve ligation, mechanical hyperalgesia); format: in vivo; details: 10 mg/kg p.o., after 3 hours
Text: The activity of the compounds in the treatment of neuropathic pain is evidenced, for example, in the following model of neuropathic pain in the rat:
Wistar rats are anaesthetised with enflurane and a small incision is made mid-way up one thigh to expose the sciatic nerve. The nerve is cleared of connective tissue and a 7-0 silk suture is inserted into the nerve using a ⅜ curved reverse-cutting min-needle, and tightly ligated so that the dorsal ⅓ to ½ of the nerve thickness is held within the ligature. The muscle and skin are closed with sutures and clips and the wound dusted with antibiotic powder. […] Mechanical hyperalgesia is assessed by measuring paw withdrawal thresholds on both the ipsilateral (ligated) and contralateral (unligated) hindpaw to an increasing pressure stimulus applied to the paw using an analgesymeter (Ugo-Basile) with a wedge-shaped probe (area 1.75 mm^2) and a cut-off threshold of 250 g. […] Reversal of established hyperalgesia by administered compounds is measured 12-14 days following surgery, using 6 animals per treatment group. Paw withdrawal thresholds are measured prior to and then up to 6 hours following drug or vehicle administration. Statistical analysis is carried out on withdrawal threshold readings using ANOVA followed by Tukey's HSD test comparing drug treated and time-matched vehicle treated animals.

Wistar Kyoto rats [2] = assay: Test 1: NMDA-antagonist induced locomotion; format: in vivo; details: rat
Experimental: Test 1: NMDA-Antagonist Induced Locomotion:
Male Wistar Kyoto rats (Iffa Crédo, Lyon, France) weighing between 250 and 310 g are used. In principle 4 treatment groups are formed: 1) the compound (doses 1, 3 or 10 mg/kg) followed by the competitive NMDA receptor antagonist (S)-2-amino-3-(2′-chloro-5-phosphonomethyl-biphenyl-3-yl)-propionic acid, hereinafter SDZ 220-581 (10 mg/kg), 2) solvent-pretreatment followed by SDZ 220-581 (10 mg/kg), 3) solvent followed by solvent, 4) the compound (1, 3, 10 mg/kg) followed by solvent. Rats are randomly allocated to these pretreatment groups (n=10/dose group). Drugs are administered subcutaneous (s.c.), 15 min prior to SDZ 220-581. Immediately after the animals received SDZ 220-581, they are placed into the activity monitor for a period of 60 min. Locomotor activity is analysed over the initial 30 minutes.
Locomotion is recorded with a videotracking system (VideoMot2, TSE Technical and Scientific Equipment GmbH, Bad Hombourg, Germany), using a closed circuit digital videocamera (WV-BP.330/GE, Panasonic, Osaka, Japan). The video-signal from the camera is digitized and used for data analysis. Animals are on a normal 12/12 h day-night cycle, with light on at 06:00H. Experiments are performed in a dimly lit room between 07:00 H and 15:00H. […] The camera is placed such, that four animals (one per arena) can be recorded simultaneously.

Wistar Kyoto rats [3] = assay: Test 2: NMDA-channel blocker induced head swaying and circling; format: in vivo; details: rat, 10 mg/kg s.c., 0-30 min
Experimental: Test 2: NMDA-Channel Blocker Induced Head Swaying and Circling:
Adult male Wistar Kyoto rats (340-380 g; Iffa Credo, Lyon, France) are used. The animals are randomized to the following treatment groups (n=10 per group): the compound (dosed 0, 3 or 10 mg/kg) followed by phencyclidine (PCP; an NMDA channel blocker, dosed 0 or 10 mg/kg). Compound (at t=−15 min) and PCP (at t=0 min) are administered s.c. in a volume of 1 ml/kg. Video-recordings of the animals behaviour over the period 0-30 min following PCP are scored by an observer who is unaware about the animals pretreatment. Head-swaying (rocking the head repeatedly by at least 2 cm left and right) and circling (turning around by using the forepaws, whereas the hindpaws remain more or less on the original position) are scored as present (1) or absent (0), every five minutes for the duruation of 1 minute. The scores for individual animals is summed and group scores used for statistical analysis (t-test with Bonferroni correction).

## O=C(O)c1ccccc1O [salicylate]
Auditory neurons
  firing rate of auditory neurons: increase in the firing rate
neurons
  excitability of the recorded neurons: increases the excitability

## O=c1[nH]c2cc([N+](=O)[O-])cc(CNCP(=O)(O)O)c2[nH]c1=O [{[(7-nitro-2,3-dioxo-1,2,3,4-tetrahydro-quinoxalin-5-ylmethyl)-amino]-methyl}-phosphonic acid]
[1]
  pain severity ratings relative to placebo: decrease pain severity ratings relative to placebo
Wistar rats
  maximal reversal of neuropathic mechanical hyperalgesia: 35%
Wistar Kyoto rats [2]; compound 10 mg/kg s.c., SDZ 220-581 10 mg/kg s.c.
  effect of the NMDA-antagonist SDZ 220-581 on locomotion after pretreatment: almost normalized

## c1ccc(C2(N3CCCCC3)CCCCC2)cc1 [PCP, phencyclidine]
Wistar Kyoto rats [3]
  head-swaying and circling induced: weak head-swaying and circling

## N[C@@H](Cc1cc(CP(=O)(O)O)cc(-c2ccccc2Cl)c1)C(=O)O [SDZ 220-581, (S)-2-amino-3-(2′-chloro-5-phosphonomethyl-biphenyl-3-yl)-propionic acid]
Wistar Kyoto rats [2]; 10 mg/kg s.c., control animals approximately 8-10 m
  distance walked during 30 min: approximately 30 m

## C=C[C@H]1C[N@@]2CC[C@H]1C[C@H]2[C@H](O)c1ccnc2ccc(OC)cc12 [quinine]
Auditory neurons
  firing rate of auditory neurons: increase in the firing rate
